Earlier results on 45 compounds are cited in the PKSmart pharmacokinetics tables (Seal et al. 2025).

The data set can be described thus: not given per row; by the article one of three: Lombardo et al. 2013, J Clin Pharmacol 53:178, doi 10.1177/0091270012440282; 'New Drugs at FDA', novel drug approvals for 2021 and 2022 (the article's reference 43); Yap, Li, Chen 2006, J Mol Graph Model 24:383, doi 10.1016. The following applies: human; in vivo.
As for `CS(=O)(=O)c1ccc(Oc2cc(F)cc(C#N)c2)c2c1[C@H](O)[C@H](F)[C@@H]2F`, the Vd was 2.17 L/kg, the clearance is 2.03 mL/min/kg and the half-life was 14 h.

On to `CCN(CC)C(=O)N[C@H]1C[C@@H]2c3cccc4[nH]cc(c34)C[C@H]2N(C)C1`, for which the clearance is 16 mL/min/kg.

`CC(NC(CCc1ccccc1)C(=O)O)C(=O)N1C(C(=O)O)C[C@@H]2CCCC[C@@H]21` (stereo not given in full): the clearance was 1.67 mL/min/kg. As for `CC(C)(C)NC[C@@H](O)c1cc(O)cc(O)c1`, the clearance is 4 mL/min/kg. As for `COc1ccc(-n2nccn2)c(C(=O)N2CCC[C@@]2(C)c2nc3c(C)c(Cl)ccc3[nH]2)c1`, the Vd is 0.52 L/kg and the half-life is 8 h. As for `CN1CCC[C@@H](n2nc(Cc3ccc(Cl)cc3)c3ccccc3c2=O)CC1`, the clearance is 8.33 mL/min/kg. With `COCC(=O)Nc1c(I)c(C(=O)NC[C@H](O)CO)c(I)c(C(=O)N(C)C[C@H](O)CO)c1I`, the clearance is 1.53 mL/min/kg. `O[C@@H](c1cc(C(F)(F)F)nc2c(C(F)(F)F)cccc12)[C@@H]1CCCCN1`: the clearance was 0.41 mL/min/kg. Regarding `COC(=O)Nc1c(N)nc(-c2nn(Cc3ccccc3F)c3ncc(F)cc23)nc1N`, the distribution volume (Vd) was 0.73 L/kg, the clearance was 0.44 mL/min/kg and the half-life is 30 h. For the compound `COc1ccc(C(=O)Nc2ccccc2CC[C@@H]2CCCCN2C)cc1`, the clearance is 177 mL/min/kg. In the case of `CC(C)(C)NC[C@@H](O)COc1cccc2c1SCCC2`, the clearance is 1.86 mL/min/kg. Consider `CCC[C@H](C)[C@@]1(CC)C(=O)N=C(S)NC1=O`, for which the clearance was 3.02 mL/min/kg.

Consider `O=C(O)CN(CCN(CC(=O)O)CC(=O)O)CC(=O)O`, for which the clearance was 1.09 mL/min/kg.

Regarding `CON=C(C(=O)NC1C(=O)N2C(C(=O)[O-])=C(C[n+]3cccc4c3CCC4)CS[C@@H]12)c1csc(N)n1` (stereo not given in full), the clearance was 1.98 mL/min/kg. Consider `O=C(O)C1/C(=C\CO)O[C@H]2CC(=O)N12` (stereo not given in full), for which the clearance is 3.6 mL/min/kg.

As for `CCC[C@H]1CC(C(=O)N[C@@H]([C@H]2O[C@@H](SC)[C@H](O)[C@@H](O)[C@@H]2O)[C@H](C)O)N(C)C1` (stereo not given in full), the clearance is 1.98 mL/min/kg.

As to `CC(=O)Oc1cc(C(F)(F)F)ccc1C(=O)O`, the clearance was 10.7 mL/min/kg. Consider `CON=C(C(=O)NC1C(=O)N2C(C(=O)O)=CCS[C@H]12)c1csc(=N)[nH]1` (stereo not given in full), for which the clearance is 1.79 mL/min/kg. Consider `NC(=O)c1ccc2c(c1O)[C@]13CCN(CC4CC4)[C@H](C2)[C@]1(O)CCC(=O)C3`, for which the clearance is 11.1 mL/min/kg and the half-life was 9 h.

In the case of `Cc1nc2ccc(CN(C)c3ccc(C(=O)NC(CCC(=O)O)C(=O)O)s3)cc2c(=O)[nH]1` (stereo not given), the clearance is 0.59 mL/min/kg.

Turning to `CCCCC[C@H](O)CC[C@@H]1C2Cc3cccc(OCC(=O)O)c3C[C@@H]2C[C@@H]1O` (stereo not given in full), the clearance was 7.14 mL/min/kg.

Take `COCc1c(C(=O)OC(C)C)ncc2[nH]c3ccc(OCc4ccccc4)cc3c12`: the clearance was 13 mL/min/kg. Turning to `CN1CCN(c2ccc(Nc3ncc4cc5n(c4n3)C3(CCCCC3)CNC5=O)nc2)CC1`, the Vd is 18.8 L/kg, the clearance is 41.7 mL/min/kg and the half-life is 14 h.

For `CCN1CCN(c2ccc(Nc3cc(N(C)C(=O)Nc4c(Cl)c(OC)cc(OC)c4Cl)ncn3)cc2)CC1`, the Vd is 26.7 L/kg, the clearance was 9.19 mL/min/kg and the half-life was 33.5 h. For `O=C(NC(C(=O)NC1C(=O)N2C(C(=O)O)C(=C[n+]3ccc(CCS(=O)(=O)[O-])cc3)CSC12)c1ccccc1)c1nc[nH]c1C(=O)O` (stereo not given), the Vd was 0.21 L/kg and the clearance is 1.7 mL/min/kg.

For the compound `COc1ccc(NC(=O)\C=C(C)/C=C/C=C(C)\C=C\C2=C(C)CCCC2(C)C)cc1`, the clearance is 98.9 mL/min/kg. With `CCCC[C@@H]1CC(=O)[C@]2(O)O[C@H]3[C@@H](NC)[C@@H](O)[C@@H](NC)[C@H](O)[C@@H]3O[C@@H]2O1`, the clearance was 1.9 mL/min/kg. For the compound `CC(C)(ON=C(C(=O)CC1C(=O)N2C(C(=O)O)=C(C[n+]3ccccc3)CS[C@H]12)c1csc(N)n1)C(=O)[O-]` (stereo not given in full), the clearance is 1.88 mL/min/kg. As to `C[C@H]1CN(C2CCC(C#N)(c3ccc(F)cc3)CC2)CC[C@]1(C(=O)O)c1ccccc1` (stereo not given in full), the clearance is 0.43 mL/min/kg. With `COP(=O)(OC)[C@H](O)C(Cl)(Cl)Cl`, the clearance was 5.67 mL/min/kg. In the case of `CNC[C@@H](O)c1cccc(O)c1`, the clearance was 29.9 mL/min/kg.

With `CN1CCC[C@@H]1c1cccnc1`, the clearance is 18.5 mL/min/kg.

Take `CN(C)CCC[C@]1(c2ccc(F)cc2)OCc2cc(C#N)ccc21`: the clearance is 5.21 mL/min/kg.

As to `Cc1ncc([N+](=O)[O-])n1C[C@@H](C)O`, the clearance is 0.4 mL/min/kg. In the case of `COC(=O)C1=C(C)NC(C)=C(C(=O)OC(C)C)[C@H]1c1cccc2nonc12`, the clearance is 9.52 mL/min/kg. For the compound `Cc1c(C(C)C)c(=O)n(-c2ccccc2)n1C`, the clearance is 11 mL/min/kg.

Turning to `CC(C)Nc1nc2cc(Cl)c(Cl)cc2n1[C@H]1O[C@@H](CO)[C@H](O)[C@@H]1O`, the distribution volume (Vd) is 0.46 L/kg, the clearance was 0.79 mL/min/kg and the half-life was 4.32 h. `O=C(O)C1C[C@H](C2CCCCC2)CN1C(=O)C[P@](=O)(O)CCCCc1ccccc1` (stereo not given in full): the clearance was 0.46 mL/min/kg.

For `C=CC(=O)Nc1cc(Nc2ncc(C(=O)OC(C)C)c(-c3cn(C)c4ccccc34)n2)c(OC)cc1N(C)CCN(C)C`, the Vd was 58.5 L/kg, the clearance is 38.3 mL/min/kg and the half-life was 18 h. For the compound `NC(C(=O)NC1C(=O)N2C(C(=O)O)=C(Cl)CC[C@@H]12)c1ccccc1` (stereo not given in full), the clearance was 4.45 mL/min/kg.

Take `CCOC(=O)NC1=C(N2CC2)C(=O)C(NC(=O)OCC)=C(N2CC2)C1=O`: the clearance was 11 mL/min/kg.

In the case of `CCc1ccc(CCOc2ccc(Cc3sc(=O)[nH]c3O)cc2)nc1`, the clearance is 1.43 mL/min/kg. On to `C=C[C@H](N)CCC(=O)O`, for which the clearance was 0.74 mL/min/kg.

For the compound `Nc1nnc(-c2cccc(Cl)c2Cl)c(N)n1`, the clearance is 0.51 mL/min/kg.

`COCC1=C(C(=O)O)N2C(=O)C(=NC(=O)C(NOC)c3csc(N)n3)[C@H]2SC1` (stereo not given in full): the clearance was 2.38 mL/min/kg.

Broadly, the Vd is the apparent volume that relates the amount in the body to the concentration in plasma or blood. As usually defined, the clearance is a measure of how efficiently the substance is removed, as volume per time. What is called half-life is how long it takes for the measured level to halve.
